# In PubChem BioAssay (NCI):
# Where “and” joins values, the source holds several entries; their conditions need not be identical. Identical values can stand only once.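 Protocol summary: plate cells (96-well), add compound at 5 concentrations, incubate 48 h, interpolate endpoints linearly. GI50 = concentration required for 50% inhibition of growth. Definition used: TGI = concentration required for complete inhibition of growth.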
# Assays:
# Experiment in all cases: NCI tumour cell line growth inhibition, 48 h
# LOX IMVI melanoma = system: LOX IMVI melanoma
# SF-268 CNS = system: SF-268 CNS
# CAKI-1 renal = system: CAKI-1 renal
# HCC-2998 colon = system: HCC-2998 colon
# A549 NSCLC = system: A549 NSCLC
# MALME-3M melanoma = system: MALME-3M melanoma
# NCI-H23 lung = system: NCI-H23 lung
# A498 renal = system: A498 renal
# SNB-75 CNS = system: SNB-75 CNS
# KM12 colon = system: KM12 colon
SMILES,GI50 (LOX IMVI melanoma) [µM],TGI (LOX IMVI melanoma),GI50 (SF-268 CNS) [µM],TGI (SF-268 CNS) [µM],GI50 (CAKI-1 renal) [µM],TGI (CAKI-1 renal),GI50 (HCC-2998 colon) [µM],TGI (HCC-2998 colon) [µM],GI50 (A549 NSCLC) [µM],TGI (A549 NSCLC) [µM],GI50 (MALME-3M melanoma) [µM],TGI (MALME-3M melanoma) [µM],GI50 (NCI-H23 lung) [µM],TGI (NCI-H23 lung) [µM],GI50 (A498 renal) [µM],TGI (A498 renal) [µM],GI50 (SNB-75 CNS) [µM],TGI (SNB-75 CNS) [µM],GI50 (KM12 colon) [µM],TGI (KM12 colon) [µM]
CC(C)COc1nc2c(c(=O)n(C)c(=O)n2C)n1C,> 100,> 100 µM,> 100,> 100,18.2,> 100 µM,> 100,> 100,> 100,> 100,> 100,> 100,> 100,> 100,> 100,> 100,47,> 100,> 100,> 100
O=C1C2C3CC(C4C5C=CC(C5)C34)C2C2C3CC(C12)C1C2C=CC(C2)C31 (centres undefined),,> 100 µM,,> 100,,> 100 µM,,> 100,,> 100,,> 100,,> 100,,> 100,,> 100,,> 100
Cc1cn(Cc2ccc(C34CC5CC(CC(C5)C3)C4)c(O)c2)c(=O)[nH]c1=O,11.3,23.3 µM,12.7,41.8,10.1,23.3 µM,9.45,21.4,,,14.6,29.7,8.11,20.7,4.33,17.8,11.2,29.6,11.4,26.2
CSc1nc2c(c(=O)n1C)CN(C1CCCCC1)C(=O)C(c1ccccc1)N2 (centres undefined),17.1,> 100 µM,25.3,> 100,26.9,> 100 µM,35.9,> 100,38.4,> 100,10.9,43.5,51.2,> 100,0.292,37.6,95.8,> 100,27.6,> 100
O=C1C=CC(=O)c2c(O)c3c(c(O)c21)C[C@H](O)[C@H](O)[C@@H]3O,,4.08 µM,,8.02,,4.38 µM,,21.3,,9.39,,2.6,,4.67,,13.3,,7.99,,16.8
CCOP(=O)(OCC)C(C(=O)OC)C(=O)C(=O)Nc1cccc(O)c1 (centres undefined),,> 100 µM,,> 100,,> 100 µM,,> 100,,> 100,,> 100,,> 100,,> 100,,> 100,,> 100
Cc1cc(C)c(-c2c(N)cc(Br)cc2Br)c(N)c1,5.21,18 µM,7.86,21.5,3.83,19.1 µM,10.9,23.1,5.62,19.6,5.09,20.3,4.89,18,2.35,14.4,2.48,10.1,3.89,14.5
CC(=O)[CH-]C(=O)c1ccccc1.CC(=O)[CH-]C(=O)c1ccccc1.O=S(=O)([O-])c1cc([O-])c2c([O-])cc(S(=O)(=O)[O-])cc2c1.[Na+].[Zr+4],> 100,> 100 µM,> 100,> 100,60,> 100 µM,> 100,> 100,> 100,> 100,53.1,> 100,,,> 100,> 100,49,> 100,> 100,> 100
CO[C@H]1CC(O[C@@H]2/C(C)=C/C[C@@H]3C[C@@H](C[C@]4(CC[C@H](C)[C@@H](C5CCCCC5)O4)O3)OC(=O)[C@@H]3C=C(C)/C(=N/O)[C@H]4OC/C(=C\C=C\[C@@H]2C)[C@]43O)O[C@@H](C)C1O (some centres undefined),0.651,1.28 µM,0.982,2.45,1.14,3.32 µM,0.831,1.57,0.935,2.66,1.17,3.15,1.01,2.65,0.802,1.95,0.867,2.57,0.826,1.52
Cc1cccc(C)c1N1C(=O)C(=O)C(c2nc3ccccc3s2)/C(=N\N)C1=O (centres undefined),,> 100 µM,,> 100,,> 100 µM,,> 100,,> 100,,> 100,,> 100,,> 100,,> 100,,> 100
CN1CCN(Cc2ccc(NC(=O)c3cncc(C#Cc4cnc(N)c5cccnc45)c3)cc2C(F)(F)F)CC1,0.159,0.686 µM,0.466,> 50,,> 50 µM,0.484,> 50,1.35,> 50,0.0558,0.273,0.496,> 50,0.112,0.723,0.469,> 12,0.069,> 50
O=C(/C=C/c1cccc([N+](=O)[O-])c1)c1ccc([N+](=O)[O-])cc1,,> 100 µM,,> 100,,> 100 µM,,> 100,,> 100,,> 100,,> 100,,> 100,,> 100,,> 100
COC(=O)[C@@H]1Cc2c([nH]c3ccccc23)[C@H](c2ccccc2)N1,,> 100 µM,,> 100,,> 100 µM,,91.8,,> 100,,> 100,,> 100,,48.6,,86.1,,> 100
O=c1c(Cl)c(Cl)cnn1CCCl,,14.3 µM,,14.1,,6.53 µM,,9.39,,35.3,,7.14,,6.46,,29,,24.1,,29.7
Cn1cc(-c2cnn3c(N)c(Br)c(C4CCCNC4)nc23)cn1 (centres undefined),2.71,18.9 µM,15.2,> 100,5.43,> 38.5 µM,1.02,> 42.6,17.3,> 100,6.11,27.1,0.546,> 81.6,0.238,2,0.464,39.1,3.69,44.7
COC(=O)c1cc2c3ccccc3n3c2c(n1)-c1[nH]c2ccccc2c(=O)c1C3,> 100,> 100 µM,29.6,> 100,> 100,> 100 µM,> 100,> 100,> 100,> 100,> 100,> 100,38.9,> 100,27,73.7,16,71.3,> 100,> 100

SMILES,GI50 (LOX IMVI melanoma) [µM],TGI (LOX IMVI melanoma),GI50 (SF-268 CNS) [µM],TGI (SF-268 CNS) [µM],GI50 (CAKI-1 renal) [µM],TGI (CAKI-1 renal),GI50 (HCC-2998 colon) [µM],TGI (HCC-2998 colon) [µM],GI50 (A549 NSCLC) [µM],TGI (A549 NSCLC) [µM],GI50 (MALME-3M melanoma) [µM],TGI (MALME-3M melanoma) [µM],GI50 (NCI-H23 lung) [µM],TGI (NCI-H23 lung) [µM],GI50 (A498 renal) [µM],TGI (A498 renal) [µM],GI50 (SNB-75 CNS) [µM],TGI (SNB-75 CNS) [µM],GI50 (KM12 colon) [µM],TGI (KM12 colon) [µM]
CC[C@@H](C)/C=C(C)/C=C/C(=O)c1c(O)c(-c2ccc(O)cc2)cn(O)c1=O,0.288,7.64 µM,0.33,12.3,0.29,1.55 µM,2.31,13.1,1.31,12,0.255,4.7,0.562,9.93,0.479,13.1,1.38,15.7,1.99,12.7
CCCCCC/C=C\CCCCCCCCCC1=C(CN2CCN(C)CC2)C(=O)C=C(OC)C1=O,,9.79 µM,,19.7,,7.03 µM,,23.8,,28.6,,9.55,,15.4,,32.6,,16.6,,21
COc1c(-c2ccccc2)nc2ccc(Oc3ccccc3)nn12,,> 100 µM,,> 100,,> 100 µM,,> 100,,> 100,,> 92.6,,> 96.5,,> 66.5,,> 100,,> 100
COc1ccc(S(=O)(=O)N(CC(=O)O)c2ccccc2)cc1,,> 100 µM,,> 100,,> 100 µM,,> 100,,> 100,,> 100,,> 100,,> 100,,> 100,,> 100
CCCCCCCCCC[C@H](O)[C@H](O)CC[C@@H](O)[C@H]1CC[C@@H]([C@H]2CC[C@H](CCCCCCC[C@@H](O)CC3=C[C@H](C)OC3=O)O2)O1,2.9,3.5 µM and 24.2 µM,29.3,> 100,32.4,9.67 µM and 89 µM,,47,20.7,> 100,,48.3,0.951,,17.7,87.1,25.8,98.2,27.7,> 100
O=C1c2ccccc2C2CCC1c1ccccc12 (centres undefined),,> 100 µM,,> 100,,> 100 µM,,> 100,,> 100,,51.8,,65,,> 100,,> 100,,> 100
CCCCCCCC/C=C/CCCCCCCC1=NC(C)(C)CN1CCO,1.55,2.95 µM,1.46,2.78,1.56,3.03 µM,1.7,3.1,1.91,3.56,1.85,3.88,1.84,3.7,2.64,16.8,1.83,4.26,1.69,3.06
C#CCN(c1ccc(C(=O)N[C@@H](CCC(=O)N[C@H](CCC(=O)O)C(=O)O)C(=O)O)cc1)C1CCc2cc3nc(CO)[nH]c(=O)c3cc21 (some centres undefined),5.12,> 100 µM,5.94,> 100,6.13,> 100 µM,1.32,> 100,5.41,> 100,> 100,> 100,49.1,> 100,,> 100,> 100,> 100,> 100,> 100
Cc1cc(Nc2nc(N[C@@H](C)c3ncc(F)cn3)ncc2Cl)n[nH]1,13.8,> 100 µM,18.2,> 82.4,17.5,> 100 µM,38.7,> 100,29.5,> 100,47.1,> 100,23.1,> 100,1.85,13.1,8.85,36.4,0.369,> 64.1
O=C1O/C(=C/c2ccccc2)C(c2ccccc2)=C1O,,> 100 µM,,,,> 100 µM,,> 100,,> 100,,> 100,,44.7,,85.6,,> 100,,> 100
Nc1c(Cl)ncnc1NCCCCCCCCCCCCNc1ncnc(Cl)c1N,,6.52 µM,,> 100,,,,56.9,,,,> 100,,2.41,,> 100,,7.16,,> 100
COC1OC2COC(C)(C)OC2C(OC(C)=O)C1NC(=O)N(CCCl)N=O (centres undefined),,> 100 µM,,> 100,,> 100 µM,,> 100,,> 100,,> 100,,> 100,,> 100,,> 100,,> 100
C/C=C1\CN2CCc3c([nH]c4ccccc34)C2CC1CCO (centres undefined),,> 100 µM,,> 100,,,,> 100,,> 100,,> 100,,> 100,,> 100,,> 100,,> 100
COC(=O)C1=CC2C=CC(C1C(=O)OC)C1C(C(=O)OC)=C(C(=O)OC)C(C(=O)OC)=C(C(=O)OC)C21OC (centres undefined),,> 100 µM,,> 100,,> 100 µM,,> 100,,> 100,,> 100,,> 100,,> 100,,> 100,,
N#Cc1cnc(Nc2cc(NC[C@H]3CNCCO3)c(C(F)(F)F)cn2)cn1,7.15,24.2 µM,16.2,47.5,,,6.84,30.2,20.6,> 100,10.4,27.8,0.791,26.8,0.462,18,11.5,28.1,11.4,88.4
